Data reported in PMC6028453, “BrlR from Pseudomonas aeruginosa is a receptor for both cyclic di-GMP and pyocyanin” (Nature Communications, 2018).

Key:
BrlR [1] = target: T1, BrlR (Pseudomonas aeruginosa, UniProt Q9HUT5); test: FP competition experiment, wild-type BrlR; format: binding; conditions: 320 μM BrlR, 1 nM F-c-di-GMP, 760 μM c-di-GMP added
T1 construct: His6-SUMO (N, cleaved yes); made in house; host or cells: E. coli BL21 DE3
Method: Supplementary Figure 4: Fluorescence polarization competition experiment. Wt BrlR was added to a final concentration of 320 μM in the reaction buffer containing 1 nM F-c-di-GMP, and the binding […]
curve was recorded. […] After the addition of
760 μM c-di-GMP (indicated with an arrow in the figure), an apparent competition with the fluoresceinated c-di-GMP could be observed by the remarkable decrease in millipolarization units.
(§1) (1 picture or pasted object on this page, not shown here)

BrlR-C = target: T2, BrlR-C (Pseudomonas aeruginosa, UniProt Q9HUT5); test: FP competition experiment, BrlR-C; format: binding; conditions: 550 μM BrlR-C, 1 nM F-c-di-GMP
T2 construct: His6 (cleaved yes); made in house; host or cells: E. coli (same protocol as BrlR, induction at 18 °C)
Method: Supplementary Figure 11: FP analyses of F-c-di-GMP binding to BrlR-C. (a) Isotherms of BrlR-C binding to F-c-di-GMP. The binding experiment was carried out at 25 °C in a buffer containing 150 mM NaCl, 25 mM Tris·HCl (pH 7.5), and 1 nM F-c-di-GMP. Increasing concentrations of BrlR-C were titrated into the reaction mixture to obtain the binding isotherms. (b) Fluorescence polarization competition experiment of BrlR-C. As a control, 550 μM BrlR-C was added to the reaction tube containing 1 nM F-c-di-GMP, and different competitors were respectively added in the solution and the values of millipolarization were recorded.
as §1

BrlR [2] = target: T1, BrlR; test: Surface plasmon resonance (SPR) analysis; format: binding; conditions: SPR, first submitted version of the manuscript (quoted by reviewer); authors later call it a very weak artificial affinity
Method: The binding affinity of diverse toxic compounds for BrlR were investigated by SPR using a BIAcore-T200 apparatus (GE Healthcare). The ligand, BrlR (20 μM in 10 mM sodium acetate, pH 4.5), was immobilized on an activated CM5 sensor chip by amine coupling (BIAcore) with 4400 response units (RU), and the unreacted sites were blocked with 1.0 M ethanolamine–HCl (pH 8.5). Steady-state binding analysis was performed with injections of different molecules at different concentrations over the immobilized BrlR surface at a flow rate of 20 μL min^−1 at 25 °C. Association was measured for 180 s, followed by 120 s of dissociation in running buffer (20 mM Hepes pH 7.5, 150 mM NaCl). The sensorgrams for specific interactions were obtained by subtracting the reference unimmobilized flow cell response from that of the sample. Since BrlR only has one binding site for pyocyanin or other toxic compounds (Fig. 5a–f), the kinetic analysis of the sensorgrams from analyte interaction with the immobilized BrlR was performed by fitting the binding curves to a 1:1 binding model. To determine the steady state KD values, equilibrium responses were plotted against analyte concentrations, and the resulting curves were fitted to the steady state model in the BIAevaluation software package, version 3.0 (GE Healthcare).

BrlR-DNA binding (PbrlR) = target: T3, BrlR-DNA binding (PbrlR) (Pseudomonas aeruginosa, UniProt Q9HUT5); test: EMSA, wild-type BrlR with PbrlR DNA; format: biochemical
T3 construct: His6-SUMO (N, cleaved yes); made in house; host or cells: E. coli BL21 DE3
Method: (§2) A 6-carboxy-fluorescein (FAM)-labeled 36-bp brlR promoter DNA (PbrlR) or 80-bp mexA/mexE promoter DNA (PmexA/PmexE) probes (~0.375 pmol), BrlR protein and varying amounts of inducers were incubated in binding buffer (10 mM Tris HCl [pH 7.4], 50 mM KCl, 1 mM DTT, […] and 5 ng/mL poly [dI-dC]) for 60 min at 25 °C. Finally, glycerol was added to a concentration of 6.5%. The samples were subjected to a 5% polyacrylamide gel electrophoresis and run in 0.5 × Tris-borate-EDTA buffer at 80 V for 1 h at room temperature. Imaging and data analyses were performed using a Typhoon Scanner (GE Healthcare) and Imagequant software. The probes used are listed in Supplementary Table 1.

[3] = target: T4, C2E mut3 (R31A/D35A/Y40A/R67A/R86A/Y270A) DNA binding (Pseudomonas aeruginosa, UniProt Q9HUT5, D35A/R31A/R67A/R86A/Y270A/Y40A); test: EMSA, C2E mut3; format: biochemical
T4 construct: His6-SUMO (N, cleaved yes); made in house; host or cells: E. coli BL21 DE3
Method: as §2

BrlR R31A DNA binding = target: T5, BrlR R31A DNA binding (Pseudomonas aeruginosa, UniProt Q9HUT5, R31A); test: EMSA, BrlR R31A; format: biochemical
T5 construct: His6-SUMO (N, cleaved yes); made in house; host or cells: E. coli BL21 DE3
Method: as §2

BrlR Y270A DNA binding = target: T6, BrlR Y270A DNA binding (Pseudomonas aeruginosa, UniProt Q9HUT5, Y270A); test: EMSA, BrlR Y270A; format: biochemical
T6 construct: His6-SUMO (N, cleaved yes); made in house; host or cells: E. coli BL21 DE3
Method: as §2

BrlR D35A DNA binding = target: T7, BrlR D35A DNA binding (Pseudomonas aeruginosa, UniProt Q9HUT5, D35A); test: EMSA, BrlR D35A; format: biochemical
T7 construct: His6-SUMO (N, cleaved yes); made in house; host or cells: E. coli BL21 DE3
Method: as §2

[4] = tested on: brlR promoter activity (C2E mut1); test: β-galactosidase assay, C2E mut1; format: cell-based, Pseudomonas aeruginosa
Method: We also performed β-galactosidase activity assays using a PbrlR-brlR-lacZ reporter construct to investigate the transcriptional function of BrlR mutants in vivo. […] To confirm the effect of c-di-GMP in P. aeruginosa, we carried out real-time quantitative PCR analyses. Following a previous report, we introduced the diguanylate cyclase PA4843 into a WT P. aeruginosa strain carrying either pHERD20T-empty or pHERD20T-PA4843. The transcription level of brlR was analyzed using the brlR 5 F and brlR 3 R primers (Supplementary Table 1). The transcriptional level of brlR in pHERD20T-PA4843 strain is 4.5 ± 1.3-fold higher than that in the pHERD20T-empty strain (Fig. 4h).
β-galactosidase activity was assayed with P. aeruginosa PA01 ΔbrlR strain carrying plasmid pME6522-borne transcriptional lacZ fusions. P. aeruginosa carrying the empty vector was used as the […]. The reporter plasmids are derivatives of the pME6522 plasmid in which multiple cloning sites were inserted before the LacZ with the promoter and coding regions of brlR with diverse mutations. These reporter plasmids were transformed into the reporter strain. Overnight cultures were diluted 20-fold with LB medium supplemented with appropriate antibiotics. […]

T3 sequence (Q9HUT5 whole entry): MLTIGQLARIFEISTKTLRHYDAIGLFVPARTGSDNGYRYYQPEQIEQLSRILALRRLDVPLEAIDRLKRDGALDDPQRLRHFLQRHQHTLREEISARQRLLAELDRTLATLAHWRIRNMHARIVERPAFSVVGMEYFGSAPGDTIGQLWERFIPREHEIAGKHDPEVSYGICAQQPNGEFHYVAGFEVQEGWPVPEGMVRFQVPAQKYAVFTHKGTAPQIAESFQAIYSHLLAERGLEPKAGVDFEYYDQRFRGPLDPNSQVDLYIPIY
T1 sequence (Q9HUT5 whole entry): as above
T7 sequence (Q9HUT5 whole entry D35A): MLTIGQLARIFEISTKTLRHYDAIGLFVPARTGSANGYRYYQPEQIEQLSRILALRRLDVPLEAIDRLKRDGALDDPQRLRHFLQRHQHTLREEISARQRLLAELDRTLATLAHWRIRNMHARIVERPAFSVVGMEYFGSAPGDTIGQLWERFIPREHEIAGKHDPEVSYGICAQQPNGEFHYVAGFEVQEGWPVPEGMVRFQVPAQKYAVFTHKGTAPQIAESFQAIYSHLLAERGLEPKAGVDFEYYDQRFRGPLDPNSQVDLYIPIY
T5 sequence (Q9HUT5 whole entry R31A): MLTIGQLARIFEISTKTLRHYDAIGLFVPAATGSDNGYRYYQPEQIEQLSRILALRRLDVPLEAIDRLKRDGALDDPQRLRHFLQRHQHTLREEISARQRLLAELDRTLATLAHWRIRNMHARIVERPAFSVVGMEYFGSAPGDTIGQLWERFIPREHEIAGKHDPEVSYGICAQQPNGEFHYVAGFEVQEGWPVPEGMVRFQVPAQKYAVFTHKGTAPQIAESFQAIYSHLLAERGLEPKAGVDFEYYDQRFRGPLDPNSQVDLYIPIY
T6 sequence (Q9HUT5 whole entry Y270A): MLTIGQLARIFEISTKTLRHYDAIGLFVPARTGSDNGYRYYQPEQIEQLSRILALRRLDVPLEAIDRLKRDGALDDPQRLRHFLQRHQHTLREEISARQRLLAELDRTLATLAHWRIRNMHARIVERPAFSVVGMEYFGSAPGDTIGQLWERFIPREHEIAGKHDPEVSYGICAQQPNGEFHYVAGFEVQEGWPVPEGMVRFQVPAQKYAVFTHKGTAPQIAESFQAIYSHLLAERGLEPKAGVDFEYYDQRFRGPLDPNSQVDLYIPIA
T2 sequence (Q9HUT5 120-270): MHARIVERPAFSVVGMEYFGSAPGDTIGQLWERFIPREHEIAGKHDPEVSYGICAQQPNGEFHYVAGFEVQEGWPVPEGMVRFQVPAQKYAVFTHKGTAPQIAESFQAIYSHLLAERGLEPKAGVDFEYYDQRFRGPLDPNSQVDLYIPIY
T4 sequence (Q9HUT5 whole entry R31A/D35A/Y40A/R67A/R86A/Y270A): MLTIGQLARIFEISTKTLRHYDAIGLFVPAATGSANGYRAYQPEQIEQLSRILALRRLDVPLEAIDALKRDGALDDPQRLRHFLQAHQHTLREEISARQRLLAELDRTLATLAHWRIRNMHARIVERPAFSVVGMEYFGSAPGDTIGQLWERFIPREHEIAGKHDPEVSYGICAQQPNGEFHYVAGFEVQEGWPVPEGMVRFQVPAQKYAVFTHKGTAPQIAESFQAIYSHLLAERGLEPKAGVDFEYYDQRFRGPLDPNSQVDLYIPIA

Nc1nc2c(ncn2[C@@H]2O[C@@H]3COP(=O)(O)O[C@H]4[C@@H](O)[C@H](n5cnc6c(=O)[nH]c(N)nc65)O[C@@H]4COP(=O)(O)O[C@H]3[C@H]2O)c(=O)[nH]1 [c-di-GMP, cyclic diguanylate monophosphate]
competition with F-c-di-GMP binding to BrlR (BrlR [1]): outcompeted specifically | competition with F-c-di-GMP binding to BrlR-C (BrlR-C): not | Kd (BrlR [2]): 2690 µM | effect of c-di-GMP and pyocyanin together on BrlR-DNA binding (BrlR-DNA binding (PbrlR); PbrlR, c-di-GMP, pyocyanin, and both): cooperatively enhance | BrlR-DNA complex in the presence vs absence of c-di-GMP (BrlR-DNA binding (PbrlR); wild-type BrlR, band densitometry): 5.5 fold | effect on BrlR-PbrlR DNA binding (in words) (BrlR-DNA binding (PbrlR); wild-type BrlR, increasing concentrations of compound): significantly promoted | effect of c-di-GMP on DNA binding [3]: did not have any effect | DNA bound in the presence vs absence of c-di-GMP (BrlR R31A DNA binding): ~ 1.3 fold | DNA bound in the presence vs absence of c-di-GMP (BrlR Y270A DNA binding): ~ 3.4 fold | DNA bound in the presence vs absence of c-di-GMP (BrlR D35A DNA binding): ~ 4.8 fold | increase at high vs low c-di-GMP concentration (β-galactosidase activity) [4]: 2.0 fold
